Experimental data from publication PMC10771296, “Plectasin: from evolution to truncation, expression, and better druggability” (Frontiers in Microbiology, 2023).
Converted amounts (≈) assume the structure as drawn. Read-outs that look alike come from different tables or passages of the source. Marks after values point to notes of the source that are not given here.

Key:
[1] = tested on: mouse erythrocytes; conditions: 256 μg/mL; ref Zhang et al., 2011; Yang et al., 2019; cited from earlier work
Description: The length, positive charge number, and amphiphilicity of the derived peptide Ple-AB were altered, reducing the peptide chain length from 40 to 36 amino acids, reducing the molecular weight from 4407.99 to 4006.66 Da, increasing the charge number from +1 to +3, and increasing the hydrophobicity from −0.695 to −0.469 (Table 1).

[2] = tested on: P. aeruginsoa CICC21630; conditions: ref Yang et al., 2019; cited from earlier work
Description: (§1) Table 3 The MIC values of Ple-AB. | column: MIC (μg/mL) / Plectasin

[3] = tested on: S. aureus CVCC546; conditions: ref Yang et al., 2019; cited from earlier work
Description: as §1

[4] = tested on: E. coli O157; conditions: ref Yang et al., 2019; cited from earlier work
Description: as §1

[5] = tested on: S. aureus ATCC43300; conditions: ref Yang et al., 2019; cited from earlier work
Description: as §1

[6] = tested on: S. aureus E48; conditions: ref Yang et al., 2019; cited from earlier work
Description: as §1

[7] = tested on: S. aureus ATCC43300; conditions: ref Lei et al., 2018; cited from earlier work
Description: Clinical applications require drugs that exhibi ...

[8] = tested on: S. aureus ATCC43300; experiment: Time-kill curve (bacterial kinetics in vitro); assay type: cell-based, Staphylococcus aureus; conditions: 2× MIC, 1 × 10^5 CFU/mL, 37°C, 250 rpm, colony counting
Procedure: The bactericidal efficiency of Ple-AB was evaluated by plotting a time-kill curve ([Zheng et al., 2021]). Single colonies of the S. aureus ATCC43300 were picked for overnight activation, and 1% were transferred and incubated at 37°C until the logarithmic growth phase. […] Samples of 100 uL of bacteria were taken at 0, 0.5, 1, 2, 4, 6, 8, 10, 12, and 24 h, diluted, and coated to count the number of single colonies and plot the time-killing curve.

[9] = tested on: S. aureus ATCC43300; experiment: MIC/MBC, micro broth dilution; assay type: cell-based, Staphylococcus aureus; conditions: Staphylococcus aureus, ATCC43300; micro broth dilution, 1 × 10^5 CFU/mL, repeated thrice; read-out: MIC
Procedure: The minimum inhibitory concentration (MIC) of the peptides was assayed using the micro broth dilution method, which is an important indicator of the antibacterial activity of the AMPs ([Liu et al., 2021]). […] The MIC was defined as the lowest concentration of ones at which no visible bacterial growth was observed. All the assays were repeated thrice.

Row | SMILES | Hemolytic activity [1] | MIC [2] | MIC [3] | MIC [4] | MIC [5] | MIC [6] | Time of co-incubation with simulated intestinal fluid after which activity is lost [7] | Time to kill all the strains [8] | MIC [9]
1 | CC[C@H](C)[C@@H]1NC(=O)[C@H](CO)NC(=O)[C@H](CCCCN)NC(=O)[C@@H]2CSSC[C@@H](C(=O)N[C@@H](Cc3ccc(O)cc3)C(=O)O)NC(=O)[C@H](CCCCN)NC(=O)[C@@H]3CSSC[C@H](NC(=O)[C@H](CCC(N)=O)NC(=O)[C@H](CCSC)NC(=O)[C@H](CC(=O)O)NC(=O)[C@H](CC(=O)O)NC(=O)[C@H](CCC(=O)O)NC(=O)[C@H](CC(=O)O)NC(=O)[C@H](Cc4c[nH]c5ccccc45)NC(=O)[C@@H]4CCCN4C(=O)CNC(=O)[C@H](CC(N)=O)NC(=O)[C@@H](NC(=O)CNC(=O)[C@H](Cc4ccccc4)NC(=O)CN)CSSC[C@H](NC(=O)[C@H](Cc4ccc(O)cc4)NC(=O)CNC(=O)CNC(=O)[C@H](CCCCN)NC(=O)[C@H](Cc4ccc(O)cc4)NC(=O)CNC(=O)[C@H](CCCCN)NC1=O)C(=O)N[C@@H](C)C(=O)N[C@@H](CCCCN)C(=O)NCC(=O)NCC(=O)N[C@@H](Cc1ccccc1)C(=O)N[C@@H](C(C)C)C(=O)N3)C(=O)N[C@@H](Cc1c[nH]cn1)C(=O)N[C@@H](CC(N)=O)C(=O)N[C@@H](Cc1c[nH]cn1)C(=O)N2 [Plectasin] | 68% | >128 ^a μg/mL | 16^a μg/mL | >128 ^a μg/mL | 4^a μg/mL | 4^a μg/mL | 15 to 30 min |  | 
2 | CN[C@H](CC(C)C)C(=O)N[C@H]1C(=O)N[C@@H](CC(N)=O)C(=O)N[C@H]2C(=O)N[C@H]3C(=O)N[C@H](C(=O)N[C@H](C(=O)O)c4cc(O)cc(O)c4-c4cc3ccc4O)[C@H](O)c3ccc(c(Cl)c3)Oc3cc2cc(c3O[C@@H]2O[C@H](CO)[C@@H](O)[C@H](O)[C@H]2O[C@H]2C[C@](C)(N)[C@H](O)[C@H](C)O2)Oc2ccc(cc2Cl)[C@H]1O [vancomycin, reference compound] |  |  |  |  |  |  |  | 6 h | 1 µg/mL (≈ 0.69 µM)
